Laboratory results taken from US10563263B2, “Genetic polymorphisms associated with statin response and cardiovascular diseases, methods of detection and uses thereof” (CELERA CORPORATION, priority 2010, dated 2020).

Tested on: CVD (CHD or stroke)
Test: CARE: SNP by pravastatin treatment interaction, logistic regression (synergy index), CVD endpoint
Type: in vivo, human
Details: for OR (SNP x pravastatin interaction) / OR (synergy index, SNP x pravastatin treatment interaction): CARE; for OR (synergy index), CARE, Prava vs Placebo: CVD endpoint
Excerpt: CARE was a secondary prevention trial and WOSCOPS was a primary prevention trial.
The CHD endpoint was defined in the analyses herein of CARE as a composite endpoint of fatal CHD, definite non-fatal MI, or revascularization, and was defined in the analyses herein of WOSCOPS as a composite endpoint of death from CHD, nonfatal MI, or revascularization. In both the CARE and WOSCOPS analyses herein, the CVD endpoint was defined as a composite endpoint of CHD or stroke. […] Revascularization, which can include percutaneous transluminal coronary angioplasty (PTCA), stent placement, and coronary artery bypass graft (CABG), are medical interventions that indicate the presence of CHD.
Cohort and case-only study designs were used to identify SNPs associated with response to statin treatment.
For each SNP, a logistic regression model having treatment status as the dependent variable and SNP as the independent predictor variable was performed, with terms for age, sex and race included in the model as covariates. The anti-log of the regression coefficient corresponding to the SNP is an estimate of the synergy index (SI) (Davis et al., “Imputing gene-treatment interactions when the genotype distribution is unknown using case-only and putative placebo analyses-a new method for the Genetics of Hypertension Associated Treatment (GenHAT) study”, Statistics in Medicine 23: (2004), pages 2413-2427). The SI is a ratio of odds ratios: for example in the CARE and WOSCOPS studies, the SI represents the factor by which the odds-ratio of statin treatment, compared with placebo, among major homozygous individuals is multiplied by in order to obtain the odds-ratio of treatment vs. placebo among heterozygous individuals; and multiplied by a second time to obtain the odds-ratio of treatment vs. placebo in minor homozygous individuals. […] In a randomized clinical trial, genotype and treatment are independent by design.

## CC[C@H](C)C(=O)O[C@H]1C[C@H](O)C=C2C=C[C@H](C)[C@H](CC[C@@H](O)C[C@@H](O)CC(=O)O)[C@H]21 [Pravastatin, pravastatin]
rs2132242 allele A, ADD model, Imputed
  OR (SNP x pravastatin interaction): 0.7317
rs2132242 allele A, DOM model, Imputed
  OR (SNP x pravastatin interaction): 0.6043
rs2158958 allele A, DOM model, Imputed
  OR (SNP x pravastatin interaction): 0.6617
rs2158961 allele G, DOM model, Imputed
  OR (SNP x pravastatin interaction): 0.6544
rs2163046 allele A, DOM model, Imputed
  OR (SNP x pravastatin interaction): 1.474
rs2180286 allele G, DOM model, Imputed
  OR (SNP x pravastatin interaction): 0.6211
rs2180684 allele A, DOM model, Imputed
  OR (SNP x pravastatin interaction): 1.684
rs2188079 allele C, ADD model, Imputed
  OR (SNP x pravastatin interaction): 1.333
rs2190598 allele T, DOM model, Imputed
  OR (SNP x pravastatin interaction): 0.6617
rs2190600 allele A, DOM model, Imputed
  OR (SNP x pravastatin interaction): 0.6716
rs2224184 allele T, DOM model, Genotyped
  OR (SNP x pravastatin interaction): 0.6357
rs2247066 allele A, DOM model, Imputed
  OR (SNP x pravastatin interaction): 0.6151
rs2248236 allele C, ADD model, Imputed
  OR (SNP x pravastatin interaction): 0.6377
rs2248236 allele C, DOM model, Imputed
  OR (SNP x pravastatin interaction): 0.6049
rs2265733 allele C, ADD model, Imputed
  OR (SNP x pravastatin interaction): 0.6269
rs2265733 allele C, DOM model, Imputed
  OR (SNP x pravastatin interaction): 0.5989
rs2270584 allele A, ADD model, Imputed
  OR (SNP x pravastatin interaction): 0.7437
rs2270584 allele A, DOM model, Imputed
  OR (SNP x pravastatin interaction): 0.5859
rs2270586 allele A, ADD model, Imputed
  OR (SNP x pravastatin interaction): 0.7444
rs2270586 allele A, DOM model, Imputed
  OR (SNP x pravastatin interaction): 0.5879
rs2317057 allele T, ADD model, Imputed
  OR (SNP x pravastatin interaction): 0.7125
rs2322100 allele T, REC model, Genotyped
  OR (SNP x pravastatin interaction): 1.768
rs2322101 allele A, REC model, Imputed
  OR (SNP x pravastatin interaction): 1.764
rs2327929 allele G, REC model, Imputed
  OR (SNP x pravastatin interaction): 1.996
rs2332844 allele A, ADD model, Imputed
  OR (SNP x pravastatin interaction): 1.802
rs2332844 allele A, REC model, Imputed
  OR (SNP x pravastatin interaction): 1.849
rs2349170 allele G, DOM model, Imputed
  OR (SNP x pravastatin interaction): 1.638
rs2356722 allele G, DOM model, Imputed
  OR (SNP x pravastatin interaction): 0.5863
rs2364956 allele T, ADD model, Imputed
  OR (SNP x pravastatin interaction): 1.439
rs2373793 allele G, ADD model, Imputed
  OR (SNP x pravastatin interaction): 1.379
rs2373793 allele G, DOM model, Imputed
  OR (SNP x pravastatin interaction): 1.446
rs2383903 allele G, DOM model, Imputed
  OR (SNP x pravastatin interaction): 0.6249
rs2387945 allele G, DOM model, Imputed
  OR (SNP x pravastatin interaction): 1.587
rs2389863 allele A, DOM model, Imputed
  OR (SNP x pravastatin interaction): 0.6722
rs2389866 allele C, DOM model, Imputed
  OR (SNP x pravastatin interaction): 0.6634
rs2389869 allele C, DOM model, Imputed
  OR (SNP x pravastatin interaction): 0.6634
rs2389870 allele C, DOM model, Genotyped
  OR (SNP x pravastatin interaction): 0.6413
rs16938626 allele G, model DOM, Imputed
  OR (synergy index, SNP x pravastatin treatment interaction): 0.612
rs16964300 allele G, model ADD, Imputed
  OR (synergy index, SNP x pravastatin treatment interaction): 0.6771
rs16964300 allele G, model DOM, Imputed
  OR (synergy index, SNP x pravastatin treatment interaction): 0.7073
rs16986282 allele G, model DOM, Imputed
  OR (synergy index, SNP x pravastatin treatment interaction): 0.3124
rs17007620 allele G, model ADD, Imputed
  OR (synergy index, SNP x pravastatin treatment interaction): 1.421
rs17007620 allele G, model DOM, Imputed
  OR (synergy index, SNP x pravastatin treatment interaction): 1.572
rs17014326 allele G, model DOM, Imputed
  OR (synergy index, SNP x pravastatin treatment interaction): 0.5837
rs17047957 allele C, model DOM, Imputed
  OR (synergy index, SNP x pravastatin treatment interaction): 1.47
rs17073341 allele A, model ADD, Imputed
  OR (synergy index, SNP x pravastatin treatment interaction): 2.568
rs17073341 allele A, model DOM, Imputed
  OR (synergy index, SNP x pravastatin treatment interaction): 2.569
rs17138702 allele G, model ADD, Imputed
  OR (synergy index, SNP x pravastatin treatment interaction): 0.5527
rs17189710 allele T, model ADD, Imputed
  OR (synergy index, SNP x pravastatin treatment interaction): 1.359
rs17189710 allele T, model REC, Imputed
  OR (synergy index, SNP x pravastatin treatment interaction): 1.896
rs17310176 allele T, model ADD, Imputed
  OR (synergy index, SNP x pravastatin treatment interaction): 0.6381
rs17310176 allele T, model DOM, Imputed
  OR (synergy index, SNP x pravastatin treatment interaction): 0.5794
rs17358860 allele A, model DOM, Imputed
  OR (synergy index, SNP x pravastatin treatment interaction): 0.6291
rs17370541 allele T, model REC, Imputed
  OR (synergy index, SNP x pravastatin treatment interaction): 2.075
rs17530747 allele T, model DOM, Imputed
  OR (synergy index, SNP x pravastatin treatment interaction): 0.5794
rs17649114 allele C, model DOM, Imputed
  OR (synergy index, SNP x pravastatin treatment interaction): 1.543
rs17766172 allele A, model REC, Imputed
  OR (synergy index, SNP x pravastatin treatment interaction): 0.3869
SNP rs304597 (A1 A, A2 G), rec model, cohort
  OR (synergy index), CARE, Prava vs Placebo: 1.95
SNP rs304601 (A1 A, A2 G), rec model, Caseonly
  OR (synergy index), CARE, Prava vs Placebo: 2.28
SNP rs988146 (A1 G, A2 A), add model, Caseonly
  OR (synergy index), CARE, Prava vs Placebo: 0.66
SNP rs1336400 (A1 A, A2 G), dom model, cohort
  OR (synergy index), CARE, Prava vs Placebo: 1.68
SNP rs1559557 (A1 G, A2 A), add model, Caseonly
  OR (synergy index), CARE, Prava vs Placebo: 1.34
SNP rs1877527 (A1 G, A2 A), add model, Caseonly
  OR (synergy index), CARE, Prava vs Placebo: 0.75
SNP rs2132241 (A1 A, A2 G), add model, Caseonly
  OR (synergy index), CARE, Prava vs Placebo: 0.74
SNP rs2270588 (A1 G, A2 A), add model, Caseonly
  OR (synergy index), CARE, Prava vs Placebo: 0.72
SNP rs3844207 (A1 G, A2 C), add model, cohort
  OR (synergy index), CARE, Prava vs Placebo: 0.73
SNP rs7132840 (A1 T, A2 G), add model, cohort
  OR (synergy index), CARE, Prava vs Placebo: 0.75
SNP rs9325191 (A1 A, A2 C), add model, Caseonly
  OR (synergy index), CARE, Prava vs Placebo: 0.74
SNP rs9346951 (A1 A, A2 G), add model, Caseonly
  OR (synergy index), CARE, Prava vs Placebo: 1.56
SNP rs10787944 (A1 G, A2 A), dom model, Caseonly
  OR (synergy index), CARE, Prava vs Placebo: 1.63
SNP rs10945874 (A1 T, A2 C), add model, cohort
  OR (synergy index), CARE, Prava vs Placebo: 1.72
SNP rs11178579 (A1 T, A2 G), add model, cohort
  OR (synergy index), CARE, Prava vs Placebo: 0.76
SNP rs13103899 (A1 G, A2 A), dom model, cohort
  OR (synergy index), CARE, Prava vs Placebo: 0.70
SNP rs13107334 (A1 G, A2 T), add model, cohort
  OR (synergy index), CARE, Prava vs Placebo: 0.69
SNP rs13121569 (A1 G, A2 A), dom model, Caseonly
  OR (synergy index), CARE, Prava vs Placebo: 0.66
SNP rs17048681 (A1 G, A2 T), add model, cohort
  OR (synergy index), CARE, Prava vs Placebo: 1.26
